Results from paper PMC6446940 (ChemMedChem, 2018).
Read-outs that look alike come from different tables or passages of the source.

Assays:
[1] = test system: HIV-1 Env pseudovirus Q259ENV.W6; test: Single-cycle assay TZM-bl, Env pseudovirus panel
[2] = test system: HIV-1 Env pseudovirus QB726.70M.ENV.C4; test: Single-cycle assay TZM-bl, Env pseudovirus panel
[3] = test system: HIV-1 Env pseudovirus BG505-T332N; test: Single-cycle assay TZM-bl, Env pseudovirus panel
[4] = test system: HIV-1 Env pseudovirus KNH1144; test: Single-cycle assay TZM-bl, Env pseudovirus panel
[5] = test system: HIV-1 Env pseudovirus QA790.204I.ENV.A4; test: Single-cycle assay TZM-bl, Env pseudovirus panel
[6] = test system: HIV-1 Env pseudovirus QA790.204I.ENV.C8; test: Single-cycle assay TZM-bl, Env pseudovirus panel
[7] = test system: HIV-1 Env pseudovirus QA790.204I.ENV.E2; test: Single-cycle assay TZM-bl, Env pseudovirus panel
[8] = test system: HIV-1 Env pseudovirus QG393.60M.ENV.B7; test: Single-cycle assay TZM-bl, Env pseudovirus panel
[9] = test system: HIV-1 Env pseudovirus CRF02_AG, clone 251; test: Single-cycle assay TZM-bl, Env pseudovirus panel
[10] = test system: HIV-1 Env pseudovirus CRF02_AG, clone 253; test: Single-cycle assay TZM-bl, Env pseudovirus panel
[11] = test system: HIV-1 Env pseudovirus CRF02_AG, clone 257; test: Single-cycle assay TZM-bl, Env pseudovirus panel
[12] = test system: HIV-1 Env pseudovirus QH0692, clone 42; test: Single-cycle assay TZM-bl, Env pseudovirus panel
[13] = test system: HIV-1 Env pseudovirus PVO, clone 4; test: Single-cycle assay TZM-bl, Env pseudovirus panel
[14] = test system: HIV-1 Env pseudovirus TRO, clone 11; test: Single-cycle assay TZM-bl, Env pseudovirus panel
[15] = test system: HIV-1 Env pseudovirus REJO4541, clone 67; test: Single-cycle assay TZM-bl, Env pseudovirus panel
[16] = test system: HIV-1 Env pseudovirus RHPA4259, clone 7; test: Single-cycle assay TZM-bl, Env pseudovirus panel
[17] = test system: HIV-1 Env pseudovirus 1054.TC4.1499; test: Single-cycle assay TZM-bl, Env pseudovirus panel
[18] = test system: HIV-1 Env pseudovirus B41; test: Single-cycle assay TZM-bl, Env pseudovirus panel
[19] = test system: HIV-1 Env pseudovirus Du422, clone 1; test: Single-cycle assay TZM-bl, Env pseudovirus panel
[20] = test system: HIV-1 Env pseudovirus ZM109F.PB4; test: Single-cycle assay TZM-bl, Env pseudovirus panel
[21] = test system: HIV-1 Env pseudovirus CAP210.2.00.E8; test: Single-cycle assay TZM-bl, Env pseudovirus panel
[22] = test system: HIV-1 Env pseudovirus HIV-00836-2, clone 5; test: Single-cycle assay TZM-bl, Env pseudovirus panel
[23] = test system: HIV-1 Env pseudovirus HIV-16936-2, clone 21; test: Single-cycle assay TZM-bl, Env pseudovirus panel
[24] = test system: HIV-1 Env pseudovirus HIV-25711-2, clone 4; test: Single-cycle assay TZM-bl, Env pseudovirus panel
[25] = test system: HIV-1 Env pseudovirus HIV-25925-2, clone 22; test: Single-cycle assay TZM-bl, Env pseudovirus panel
[26] = test system: HIV-1 Env pseudovirus QB099.391M.ENV.C8; test: Single-cycle assay TZM-bl, Env pseudovirus panel
[27] = test system: HIV-1 Env pseudovirus QD435.100M.ENV.B5; test: Single-cycle assay TZM-bl, Env pseudovirus panel
[28] = test system: HIV-1 Env pseudovirus BG505.W6M.ENV.C2; test: Single-cycle assay, Paired Infant and Maternal Env clones
[29] = test system: HIV-1 Env pseudovirus B1206.W6P.ENV.A1A; test: as above
[30] = test system: HIV-1 Env pseudovirus MI206.W0M.ENV.D1; test: as above
[31] = test system: HIV-1 Env pseudovirus ML274.W0M.ENV.B1; test: as above
[32] = test system: HIV-1 Env pseudovirus BK184.W6M.ENV.D2; test: as above
[33] = test system: HIV-1 Env pseudovirus MK184.W0M.ENV.E4; test: as above
[34] = test system: HIV-1 panel of Paired Infant (B) and Maternal (M) Env Molecular Clones; test: Single-cycle assay, means over Paired Infant and Maternal Env clones

CNCC(NC(=O)c1ccc(-c2ccc3c(c2)OCO3)[nH]1)c1nc(CO)cs1 (stereo not drawn) [NBD-14159, 5-(benzo[d][1,3]dioxol-5-yl)-N-(1-(4-(hydroxymethyl)thiazol-2-yl)-2-(methylamino)ethyl)-1H-pyrrole-2-carboxamide]
IC50 ([1]; TZM-bl): 1300 ± 200 nM
IC50 ([2]; TZM-bl): 2.7 ± 0.2 µM
IC50 ([3]; TZM-bl): 3.3 ± 0.2 µM
IC50 [4]: 4 ± 0.3 µM
IC50 ([5]; TZM-bl): 4 ± 0.4 µM
IC50 ([6]; TZM-bl): 2.1 ± 0.1 µM
IC50 ([7]; TZM-bl): 3.2 ± 0.2 µM
IC50 ([8]; TZM-bl): 3.8 ± 0.4 µM
IC50 ([9]; TZM-bl): 3.5 ± 0.1 µM
IC50 [10]: 3.1 ± 0.1 µM
IC50 ([11]; TZM-bl): 4.8 ± 0.2 µM
IC50 ([12]; TZM-bl): 5.8 ± 0.7 µM
IC50 ([13]; TZM-bl): 4.3 ± 0.7 µM
IC50 ([14]; TZM-bl): 4.4 ± 0.6 µM
IC50 [15]: 3.1 ± 0.4 µM
IC50 ([16]; TZM-bl): 3.7 ± 0.4 µM
IC50 ([17]; TZM-bl): 4.1 ± 0.1 µM
IC50 ([18]; TZM-bl): 1700 ± 100 nM
IC50 ([19]; TZM-bl): 3.1 ± 0.3 µM
IC50 ([20]; TZM-bl): 3300 ± 100 nM
IC50 ([21]; TZM-bl): 3.5 ± 0.2 µM
IC50 ([22]; TZM-bl): 4.9 ± 0.3 µM
IC50 ([23]; TZM-bl): 5.3 ± 0.2 µM
IC50 ([24]; TZM-bl): 5.8 ± 0.3 µM
IC50 [25]: 4.2 ± 0.5 µM
IC50 ([26]; TZM-bl): 5 ± 0.1 µM
IC50 ([27]; TZM-bl): 3300 ± 200 nM
IC50 [28]: 4.7 ± 0.5 µM
IC50 [29]: 4 ± 0.3 µM
IC50 [30]: 3.4 ± 0.2 µM
IC50 [31]: 5.4 ± 0.5 µM
IC50 [32]: 4.2 ± 0.1 µM
IC50 [33]: 2600 ± 100 nM
IC50 ([34]; Human immunodeficiency virus 1, read-out: IC50 Mean ± SEM: Infant (B)): 4e-06 ± 3e-07 M
IC50 ([34]; Human immunodeficiency virus 1, read-out: IC50 Mean ± SEM: Mother (M)): 3.8e-06 ± 5e-07 M
IC50 ([34]; Human immunodeficiency virus 1, read-out: IC50 Mean ± SEM: Overall (n=10)): 3.9e-06 ± 3e-07 M

Cc1nc([C@@H](CN)NC(=O)c2ccc(-c3ccc(F)c(F)c3)[nH]2)sc1CO (single isomer, unassigned) [NBD-14113, reference compound]
IC50 ([1]; subtype A, NIH # 11887, Q259ENV.W6, TZM-bl cells): 2100 ± 300 nM
IC50 ([2]; subtype A, NIH # 11888, QB726.70M.ENV.C4, TZM-bl cells): 4 ± 0.2 µM
IC50 ([3]; subtype A, BG505-T332N, TZM-bl cells): 3.3 ± 0.2 µM
IC50 ([5]; subtype A1/D, NIH # 11901, QA790.204I.ENV.A4, TZM-bl cells): 5.5 ± 0.3 µM
IC50 ([6]; subtype A1/D, NIH # 11903, QA790.204I.ENV.C8, TZM-bl cells): 4.3 ± 0.1 µM
IC50 ([7]; subtype A1/D, NIH # 11904, QA790.204I.ENV.E2, TZM-bl cells): 3 ± 0.1 µM
IC50 ([8]; subtype A2/D, NIH # 11906, QG393.60M.ENV.B7, TZM-bl cells): 5.9 ± 0.1 µM
IC50 ([9]; subtype AG, NIH # 11595, CRF02_AG, clone 251, TZM-bl cells): 3 ± 0.2 µM
IC50 ([11]; subtype AG, NIH # 11599, CRF02_AG, clone 257, TZM-bl cells): 4.6 ± 0.5 µM
IC50 ([12]; subtype B, NIH # 11018, QH0692, clone 42, TZM-bl cells): 4.3 ± 0.4 µM
IC50 ([13]; subtype B, NIH # 11022, PVO, clone 4, TZM-bl cells): 4 ± 0.3 µM
IC50 ([14]; subtype B, NIH # 11023, TRO, clone 11, TZM-bl cells): 5.1 ± 0.1 µM
IC50 ([16]; subtype B, NIH # 11036, RHPA4259, clone 7, TZM-bl cells): 3.7 ± 0.4 µM
IC50 ([17]; subtype B, NIH # 11561, 1054.TC4.1499, TZM-bl cells): 3.6 ± 0.2 µM
IC50 ([18]; subtype B, B41, TZM-bl cells): 3400 ± 100 nM
IC50 ([19]; subtype C, NIH # 11308, Du422, clone 1, TZM-bl cells): 3 ± 0.1 µM
IC50 ([20]; subtype C, NIH # 11314, ZM109F.PB4, TZM-bl cells): 1900 ± 100 nM
IC50 ([21]; subtype C, NIH # 11317, CAP210.2.00.E8, TZM-bl cells): 3.7 ± 0.1 µM
IC50 ([22]; subtype C, NIH # 11500, HIV-00836-2, clone 5, TZM-bl cells): 4.3 ± 0.4 µM
IC50 ([23]; subtype C, NIH # 11504, HIV-16936-2, clone 21, TZM-bl cells): 5.9 ± 0.2 µM
IC50 ([24]; subtype C, NIH # 11506, HIV-25711-2, clone 4, TZM-bl cells): 4.7 ± 0.4 µM
IC50 ([26]; subtype C, NIH # 11909, QB099.391M.ENV.C8, TZM-bl cells): 4 ± 0.3 µM
IC50 ([27]; subtype D, NIH # 11916, QD435.100M.ENV.B5, TZM-bl cells): 2200 ± 300 nM
IC50 ([28]; subtype A, NIH # 11518-B (infant), BG505.W6M.ENV.C2): 4.4 ± 0.3 µM
IC50 ([30]; subtype A, NIH # 11531-M (maternal), MI206.W0M.ENV.D1): 3.4 ± 0.2 µM
IC50 ([31]; subtype A, NIH # 11540-M (maternal), ML274.W0M.ENV.B1): 4.5 ± 0.6 µM
IC50 ([32]; subtype C/D, NIH # 11522-B (infant), BK184.W6M.ENV.D2): 3.6 ± 0.2 µM
IC50 ([33]; subtype C/D, NIH # 11536-M (maternal), MK184.W0M.ENV.E4): 2600 ± 300 nM
IC50 ([34]; read-out: IC50 Mean ± SEM: Infant (B), mean over infant clones): 4.3e-06 ± 5e-07 M
IC50 ([34]; read-out: IC50 Mean ± SEM: Mother, mean over maternal clones): 4e-06 ± 4e-07 M
